Series [1] concerns Cxcl1, Cxcl11, IL1b, and IL6 in mouse liver and lung tissue. Nature of the series: Tissue expression of chemokines and cytokines after subcutaneous injection (qPCR). As to conditions: subcutaneous, 2, 10, 50, 200 nmol tested, tissue harvested three hours later. The class given is in vivo, C57 mice. On the procedure: In additional experiments, Compound 1 was injected subcutaneously into 7 week old C57 mice at concentrations of 2, 10, 50, and 200 nmol. Tissue was harvested three hours later and RNA extracted. Quantitative PCR (qPCR) was performed to determine the tissue expression levels Cxcl1, Cxcl11, IL1b, and IL6 in mouse liver (FIG. 32A) and lung (FIG. 32B) tissue. Additional chemokines and cytokines were assayed in the lung tissue.
(Quantitative PCR measures a nucleic acid by following its amplification.)

The target of series [2] is T1, ALPK1 (Homo sapiens, UniProt Q96QP1). The experiment in a line: IL8 secretion in HEK293 cells (IL8 ELISA) as indicator of ALPK1 activation. As to conditions: for IL8 secretion in HEK293 cells: without FBS, serial dilutions, 4 hours; for restoration of H1b-ADP's activity in the cell based assay (IL8 secretion): added to the FBS-containing medium, HEK293 cells.
T1 sequence (Q96QP1 whole entry): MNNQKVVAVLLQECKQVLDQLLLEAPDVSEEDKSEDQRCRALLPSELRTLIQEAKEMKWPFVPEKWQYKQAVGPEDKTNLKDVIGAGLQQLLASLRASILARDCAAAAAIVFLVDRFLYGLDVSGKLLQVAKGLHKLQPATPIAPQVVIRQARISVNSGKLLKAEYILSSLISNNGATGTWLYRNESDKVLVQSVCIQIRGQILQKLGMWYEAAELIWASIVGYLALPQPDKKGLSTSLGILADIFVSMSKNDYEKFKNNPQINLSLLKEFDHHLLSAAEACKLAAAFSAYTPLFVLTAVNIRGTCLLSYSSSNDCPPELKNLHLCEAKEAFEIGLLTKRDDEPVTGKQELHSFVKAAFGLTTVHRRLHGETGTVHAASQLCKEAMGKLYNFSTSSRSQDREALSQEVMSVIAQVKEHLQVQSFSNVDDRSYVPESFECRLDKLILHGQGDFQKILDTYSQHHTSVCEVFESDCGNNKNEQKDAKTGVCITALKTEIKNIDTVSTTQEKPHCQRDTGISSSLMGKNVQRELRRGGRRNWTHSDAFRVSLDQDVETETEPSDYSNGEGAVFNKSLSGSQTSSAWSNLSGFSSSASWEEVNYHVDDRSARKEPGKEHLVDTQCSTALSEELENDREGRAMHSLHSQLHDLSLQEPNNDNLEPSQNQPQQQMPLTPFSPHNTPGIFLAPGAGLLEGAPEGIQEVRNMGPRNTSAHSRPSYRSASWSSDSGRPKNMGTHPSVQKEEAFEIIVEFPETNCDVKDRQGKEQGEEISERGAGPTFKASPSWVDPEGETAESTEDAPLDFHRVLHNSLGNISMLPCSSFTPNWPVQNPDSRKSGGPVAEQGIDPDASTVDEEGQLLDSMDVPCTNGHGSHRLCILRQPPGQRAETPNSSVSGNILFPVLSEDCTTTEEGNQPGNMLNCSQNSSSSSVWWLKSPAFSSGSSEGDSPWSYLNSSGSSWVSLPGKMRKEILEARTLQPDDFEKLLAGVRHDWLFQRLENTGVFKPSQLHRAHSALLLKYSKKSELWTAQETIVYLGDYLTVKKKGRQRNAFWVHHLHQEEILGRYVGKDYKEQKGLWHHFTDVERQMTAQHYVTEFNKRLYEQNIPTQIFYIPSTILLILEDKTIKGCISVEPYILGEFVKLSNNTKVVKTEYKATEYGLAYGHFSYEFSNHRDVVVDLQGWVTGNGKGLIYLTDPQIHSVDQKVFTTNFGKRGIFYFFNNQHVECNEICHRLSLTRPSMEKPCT
Description: Phosphatase such as the alkaline phosphatase may be responsible for H1b-ADP hydrolysis. We pre-mixed H1b-ADP with phosphatase inhibitor sodium orthovanadate (Na3VO4) before incubation with FBS. […] We hypothesized that the accumulation of hydrolysis product AMP can inhibit phosphatase activity.
A number of H1b-ADP derivative compounds were made as described herein and tested for biological activity as agonists of ALPK1 in vitro. In these experiments, serial dilutions of the compounds were added to the tissue culture media of HEK293 cells with (FIG. 27B, FIG. 28B, FIG. 29B) or without (FIG. 26, FIG. 27A, FIG. 28A, FIG. 29A) 10% FBS, as indicated in the figures. After 4 hours, the cell supernatant was collected and analyzed for IL8 concentration using IL8 ELISA (BD) as an indicator of ALPK1 activation.
Another series deals with CT26 cells. The experiment in a line: CT26 tumor xenograft model, tumor growth (tumor volume). The class given is in vivo, BALB/c mice. As to conditions: Example 18, FIG. 30; 50 nmol, injections at days 7, 9, 11. On the procedure: We used a CT26 tumor xenograft model to test the anti-cancer activity of H1b-ADP. Tumor cells (2×10^5 per 100 uL CT26 cells) were inoculated subcutaneously into the right flank of BALB/c mice. At day 6, mice whose tumors had reached 3-5 mm in diameter were randomized and grouped into three groups (n=8 each group), control, HMP-1bP (580 ug), and H1b-ADP (1.2 ug). Injections were performed using a total volume of 20 uL at days 6, 8, 10, 12, and 14 post inoculation. Tumor volumes were calculated every 2 days from caliper measurements of tumor dimension using the formula (L×W^2)/2, where L is the longer measurement.
To test whether H1b-ADP could augment an anti-tumor response by a checkpoint inhibitor, we tested the effects of co-administration with an anti-PD1 antibody. Tumor cells (2×10^5 per 100 μL CT26 cells) were inoculated subcutaneously into the left and right flanks of BALB/c mice. At day 7, mice whose tumors had reached 5 mm in diameter were randomized and grouped (n=8 each group) into the following four groups: anti-PD1 antibody; rat IgG; H1b-ADP+rat IgG; H1b-ADP+anti-PD1 antibody. We utilized RMP1-14 as the anti-PD1 antibody (10 mg/kg) and a rat IgG 2a (2A3) as the control IgG. Each of the anti-PD-1 antibody and the control IgG was administered intraperitoneally in a 200 μL volume on days 6, 10, 12, and 17 post-inoculation. H1b-ADP (6.2 μg) was intratumorally injected in a 20 μL volume at day 6, 8, 10, 12, and 15. Tumor volumes were calculated every 2 days from caliper measurements of tumor dimensions using the formula (L×W^2)/2, where L is the longer measurement. The results are shown in FIG. 13A for injected tumors and FIG. 13B for distant tumors. […]
The experiment was carried out as combo experiments of anti-PD1 except for the following variations. At day 6, mice whose tumors had reached 5 mm in diameter were randomized and grouped into the following four groups: anti-CTLA-4 antibody; rat IgG; H1b-ADP+rat IgG; H1b-ADP+anti-CTLA-4 antibody. We utilized 9D9 (BioxCell) as the anti-CTLA-4 antibody and a rat IgG 2b isotype (MPC-11 clone, BE0086, BioXCell) as the control IgG. Each of the anti-CTLA-4 antibody (25 μg) and the control IgG (25 μg) was administered intraperitoneally in a 200 μL volume on days 6 and 9 post-inoculation. H1b-ADP (6.2 μg) was administered intratumorally in a 20 μL volume on days 6, 7, 9, 11 post-inoculation.
The experiment was carried out as combo experiments of anti-PD1 except for the following variations. At day 6, mice whose tumors had reached 5 mm in diameter were randomized and grouped into the following four groups: c-di-AM(PS)2; PBS; H1b-ADP; H1b-ADP+c-di-AM(PS)2. We utilized c-di-AM(PS)2 as the STING agonist. […]

Series [3] has as its system phosphatase activity in the serum. The experiment in a line: Incubation of H1b-ADP with FBS, product analysed by LC-MS. The series is classed as in vitro ADME, bovine. The text has this: (§1) FBS contains 110-352 μU/ml alkaline phosphatase.
In series [4] the test system is bovine alkaline phosphatase. The experiment in a line: Incubation of H1b-ADP with bovine alkaline phosphatase. The series is classed as biochemical. The settings on record: H1b-ADP incubated with bovine alkaline phosphatase, increasing amount of Na3VO4.
Text: as §1

Series [5] has as its target T1, ALPK1. Nature of the series: Cell-free kinase assay of ALPK1 autophosphorylation (Western, anti-phospho-threonine). The class given is biochemical. The settings on record: 2 nM ALPK1 with ATP, 25° C., 1 h; H1b-ADP 10, 1, 0.2 nM; HBP and HMP-1bP 1, 10, 100 nM. How it is done: ALPK1 activation results in its autophosphorylation. Accordingly, we next asked whether the binding of H1b-ADP to ALPK1 was sufficient to induce ALPK1 autophosphorylation. Phosphorylation assays were performed according to standard protocols. Briefly, ALPK1 was incubated (2 nM, 25° C., 1 h) in assay buffer (20 μl, 25 mM HEPES pH 7.5, 50 mM KCl, 0.1 mM EDTA, 0.1 mM EGTA, 2 mM DTT, 1.5 mM CaCl2, 10 mM MgCl2) with ATP and chemically synthesized HBP, HMP-1bP, or H1b-ADP followed by denaturing gel electrophoresis and Western analysis with an anti-phospho-threonine antibody (CST) to detect autophosphorylation of ALPK1. […] The range of concentrations of HBP and HMP-1bP used in this assay (1 nM, 10 nM, 100 nM) was 10-fold higher than that used for H1b-ADP.

Series [6] concerns the target T1, ALPK1. The experiment in a line: IL-8 and TNFα mRNA expression in HEK293 cells with control or ALPK1-directed siRNA (qPCR). The class given is cell-based. On the set-up: silence ALPK1 expression in HEK293 cells; endogenous in cells; host or cells: HEK293. The settings on record: control vs ALPK1-directed siRNA, 4 hours, HBP 500, 100, 20 uM, HMP-1bP 500, 100 uM, H1b-ADP 100, 20, 4, 0.8 nM. How it is done: To test whether HBP, HMP-1bP, and H1b-ADP were able to induce cytokine expression in an ALPK1 dependent manner, we used an ALPK1-directed small interfering RNA (siRNA) to silence ALPK1 expression in HEK293 cells. Cells were plated (1×10^4 cells/well) into 96-well plates and transfected with either control siRNA or ALPK1-directed siRNA according to the manufacturer's protocols (Lipofectamine™ RNAiMax™, Invitrogen 13778075). Following 2 days of culture, either (1) HBP (500 uM, 100 uM, 20 uM, FIG. 2A-2B) (2) HMP-1bP (500 uM, 100 uM, FIG. 3A-3B), (3) H1b-ADP (100 nM, 20 nM, 4 nM, 0.8 nM, FIG. 4A-4B) was added to culture medium and cells were harvested 4 hours later.

The target of series [7] is T1, ALPK1. Nature of the series: Thermal shift assay (SYPRO Orange) for binding to ALPK1. The settings on record: ALPK1 7 uM; 1, 5, 25, 125 uM compound; H1b-ADP shift at 5, 25 and 125 uM. From the text: The thermal shift assay is widely used to determine the binding of a molecule to a protein of interest. The assay is based on the increase in thermal energy required for denaturation of a protein where another molecule is bound to the protein. SYPRO Orange is a fluorescent compound used in the detection of thermal shift. SYPRO Orange binds to hydrophobic surfaces of the protein, and water strongly quenches its fluorescence. When the protein unfolds, the exposed hydrophobic surfaces bind the dye, resulting in an increase in fluorescence. When another molecule is bound to the protein, an increase in the temperature required for unfolding of the protein is observed.
This assay system was used to determine whether or not chemically synthesized HBP, HMP-1bP, and H1b-ADP directly bind to ALPK1. […] Only H1b-ADP induced a shift of more than 1 degree, at each of the three highest concentrations tested, 5 uM, 25 uM, and 125 uM.

Series [8] deals with T1, ALPK1. Nature of the series: In vitro kinase assay of ALPK1-dependent TIFA phosphorylation. The class given is biochemical. The settings on record: FIG. 7, chemically-synthesized compounds. How it is done: We performed an in vitro kinase assay with H1b-ADP and H1b-ADP-6L along with ALPK1 protein (2 nM), and TIFA protein (1.6 uM) in kinase buffer containing 50 uM ATP. TIFA phosphorylation was analyzed by denaturing gel electrophoresis followed by western blotting using an anti-phosphothreonine antibody. H1b-ADP or H1b-ADP-6L was added at 2 nM, 0.4 nM, 80 pM, 16 pM, and 3 pM.
To test this, we performed an in vitro kinase reaction for ALPK1-dependent TIFA phosphorylation in the presence of either HBP or HIdA purified from E. coli containing inactivated HIdE, or in the presence of HBP and HIdA purified from the same HIdE wild-type E. coli used in the previous experiments. Phosphorylated TIFA (three concentrations, 1%, 0.2% and […]) was detected as described above by denaturing gel electrophoresis followed by Western analysis.

Regarding `CC(=O)OC[C@@H](OC(C)=O)[C@H]1O[C@@H](OP(=O)(O)OP(=O)(O)OC[C@H]2O[C@@H](n3cnc4c(N)ncnc43)[C@H](O)[C@@H]2F)[C@@H](OC(C)=O)[C@@H](OC(C)=O)[C@@H]1OC(C)=O` [Compound 1, (2S,3S,4S,5R,6R)-2-(((((((2R,3S,4S,5R)-5-(6-amino-9H-purin-9-yl)-3-fluoro-4-hydroxytetrahydrofuran-2-yl)methoxy)(hydroxy)phosphoryl)oxy)(hydroxy)phosphoryl)oxy)-6-((R)-1,2-diacetoxyethyl)tetrahydro-2H-pyran-3,4,5-triyl triacetate], in series [1], the “dose that activates an inflammatory response in liver tissue” value worked out at 2 nmol and the “dose that activates an inflammatory response in lung tissue” value came to 200 nmol. The “IL8 secretion in HEK293 cells” value on ALPK1 [2] is recorded as “activate IL8 secretion”. The tumor growth result with CT26 cells is listed as “reduced tumor growth”.
As to `Nc1ncnc2c1ncn2[C@@H]1O[C@H](COP(=O)(O)O)[C@@H](O)[C@H]1O` [AMP, reference compound], the “restoration of H1b-ADP's activity in the cell based assay (IL8 secretion)” value at ALPK1 [2] is “could restore H1b-ADP's activity in the cell based assay”. The “phosphatase activity in serum (H1b-ADP hydrolysis)” value in series [3] (pre-treatment of H1b-ADP with AMP before serum incubation) is “inhibited phosphatase activity and the inhibition was AMP dose-dependent”.
Take `[Na+].[Na+].[Na+].[O]=[V]([O-])([O-])[O-]` [Na3VO4, sodium orthovanadate]: the “restoration of H1b-ADP's activity in the cell based assay (IL8 secretion)” value at ALPK1 [2] is “could restore H1b-ADP's activity in the cell based assay”. Further, the “H1b-ADP hydrolysis in FBS” value in series [3] (H1b-ADP pre-mixed with 1 mM Na3VO4 before incubation with FBS) is given as “effectively inhibited H1b-ADP hydrolysis”. Further, the “phosphatase activity on H1b-ADP” value in [4] was “the phosphatase activity was blocked by increasing amount of Na3VO4”.
On to `Nc1ncnc2c1ncn2[C@@H]1O[C@H](COP(=O)(O)OP(=O)(O)O[C@@H]2OC([C@H](O)CO)[C@@H](O)C(O)C2O)C(F)C1O` (stereo in doubt) [Compound 2, Adenosine-3′-fluoro-5′-(D-glycero-β-D-mannoheptopyranosyl) diphosphate], for which the “IL8 secretion in HEK293 cells” value at ALPK1 [2] is reported as “activate IL8 secretion”. Also, the tumor growth result in the series with CT26 cells was “reduced tumor growth”.
On to `O=P(O)(O)OC[C@@H](O)[C@H]1O[C@@H](OP(=O)(O)O)[C@@H](O)[C@@H](O)[C@@H]1O` [HBP, D-glycero-β-D-manno-heptose 1,7-bisphosphate], for which the “autophosphorylation of ALPK1” value on ALPK1 [5] is on record as “not HBP or HMP-1bP induces ATP-dependent autophosphorylation”. At ALPK1 [6], the “IL-8 mRNA expression” value was “increased in an ALPK1-dependent manner” and the “TNFα mRNA expression” value is listed as “increased in an ALPK1-dependent manner”. At ALPK1 [7], the “thermal shift of ALPK1” value is “Neither HBP nor HMP-1bP were able to induce a thermal shift”. The “phosphorylation of the ALPK1 substrate TIFA” value at ALPK1 [8] is “TIFA is phosphorylated only in the presence of H1b-ADP”.

The values are drawn from patent US11840551B2, “Compositions and methods of modulating the immune response by activating alpha protein kinase 1” (Shanghai Yao Yuan Biotechnology Co., Ltd., priority 2017, dated 2023).
